Source: PMC10582583, “The novel cyclophilin inhibitor C105SR reduces hepatic ischaemia–reperfusion injury via mitoprotection” (JHEP Reports, 2023)

Key:
CypD = CypD (Homo sapiens, UniProt P30405); test: CypD PPIase activity, chymotrypsin-coupled assay; assay type: biochemical; settings: for inhibition of CypD PPIase activity by diastereoisomers: 10 μM (Fig. 2A); for IC50: Table 2, enzyme assay
[1] = system: isolated mouse liver mitochondria; test: Calcium retention capacity (CRC) assay in isolated liver mitochondria; assay type: biochemical; settings: for mitochondrial CRC vs maximum effect of CsA: 5 μM concentration and above (Fig. 2E); for mitochondrial CRC vs CsA and ALV: 0.5 and 1 μM (Fig. 2E); for maximal mitochondrial CRC, diastereoisomer vs racemic mixture: Fig. 2E; for mitochondrial CRC vs control: diastereoisomers at 100 μM (Fig. 2C); for EC50: isolated mouse liver mitochondria
AML-12 cells [2] = test: mPTP opening, CoCl2-calcein AM fluorescence-quenching assay, hypoxia/reoxygenation; assay type: cell-based, mouse; settings: for prevention of mPTP opening (loss of calcein fluorescence): 1 μM, 4 h hypoxia, 1 h reoxygenation
Experimental: We next evaluated the ability of compounds C105SR and C110SR to inhibit mPTP opening in cells. The hepatocyte cell line AML-12 was subjected to 4 h of hypoxia followed by 1 h of reoxygenation and mPTP opening was monitored using the CoCl2-calcein-acetoxymethyl ester (AM) fluorescence-quenching method.[19] Calcein-AM is a membrane permeable fluorophore which passively diffuses in all subcellular compartments including mitochondria. In the cell, the AM group of the fluorophore is cleaved by ubiquitous intracellular esterases, generating a hydrophilic product that is retained within the cell. The cells are then loaded with the divalent cobalt cation (Co^2+), which quenches calcein fluorescence in all subcellular compartments except the mitochondrial matrix, because the inner mitochondrial membrane is impermeable to cobalt. However, when mPTP is open, cobalt enters mitochondria and quenches mitochondrial calcein fluorescence. […]
(§1) Hypoxia/reoxygenation (H/R) in vitro model. AML-12 mouse hepatocyte line was obtained from American Type Culture Collection (ATCC) and maintained in DMEM/F12 culture medium at 37°C with 5% CO2. HepaRG human hepatocyte line was obtained from American Type Culture Collection (ATCC) and maintained in William’S E culture medium at 37°C with 5% CO2.When indicated, cells were incubated in phosphate buffered saline at 37°C in a hypoxic chamber filled with 94% N2, 1% O2, 5% CO2 for 4 h to mimic ischemic conditions. Then, cells were transferred to a CO2 incubator at 37°C in regular DMEM/F12 culture medium for 1 or 2 h under normoxic conditions (74% N2, 21% O2, 5% CO2). SMCypIs or vehicle (DMSO) were added during the hypoxia period, during the reoxygenation period, or during both. CsA and ALV were used as positive controls for hepatic protection against H/R injury.
Monitoring of mPTP opening. mPTP opening was monitored in AML-12 cells using the CoCl2-calcein AM fluorescence-quenching assay. Cells were loaded with 1 µM calcein-AM (green) for 20 min. Then, 1 mM CoCl2 was added and cells were incubated for another 10 min. Cells were washed and subjected to 4 h of hypoxia followed by 1 h of reoxygenation. Calcein fluorescence was measured using a spectrofluorimeter at excitation and emission wavelengths of 485 nm and 535 nm, respectively. Images were acquired using a standard inverted fluorescence microscope (Zeiss Axio, […]
media during the entire H/R period. Images shown are representative images of 12-18 images. […]
Optical density of purple formazan product was measured at 550 nm. […]

AML-12 cells [3] = test: LDH release, hypoxia/reoxygenation; assay type: cell-based, mouse; settings: for inhibition of LDH release / LDH release: 4 h hypoxia, 2 h reoxygenation; for LDH release: applied during hypoxia and reoxygenation
Experimental: As expected, cells subjected to hypoxia/reoxygenation were characterised by greater LDH release and reduced cell viability as compared to untreated controls (Fig. 4A and 4B). […]
as §1, with “injury. […]” for “injury.”
Cell viability assays. Lactate dehydrogenase (LDH) release in culture medium was assessed using the commercially non-radioactive CytoTox-96 kit (Promega, Madison, Wisconsin) following the manufacturer’s instructions. Briefly, cell culture media were collected and the LDH activity was determined by measuring absorbance at 491 nm with a spectrometer (Multiskan skyHigh). For 3-(4,5-dimethylthiazol-2-yl)-2,5-diphenyltetrazolium bromide (MTT) assay, cells were incubated with a solution of MTT (0.5 mg/mL) for 2 h at 37°C. The medium was then removed and 50 µL DMSO was added to each well. Optical density of purple formazan product was measured at 550 nm. Cell viability was expressed as a percentage of the untreated control.

AML-12 cells [4] = test: Caspase 3/7 activity assay, hypoxia/reoxygenation; assay type: cell-based, mouse; settings: applied during hypoxia and reoxygenation; 4 h hypoxia, 2 h reoxygenation
Experimental: Necrosis is the major cause of cell death during hepatic IRI. However, mPTP opening also leads to apoptosis resulting from mitochondrial swelling, rupture of the outer mitochondrial membrane and subsequent release of cytochrome C into the cytosol.[20] We investigated whether C105SR and C110SR protected against mPTP opening-induced apoptotic cell death.
Mouse serum analysis. Blood was collected at 6 h of reperfusion. Alanine aminotransferase (ALT) and aspartate aminotransferase (AST) activities were measured on an automated analyzer in the Biochemistry Department of Henri Mondor Hospital.
Histological Analysis. Hematoxylin and eosin staining was performed on 4-μm thick formalin-fixed paraffin-embedded tissue sections. […] Necrosis areas were quantified with […]
TUNEL Assay. […] The number of TUNEL-positive cells were quantified using QuPath on slides scanned at x20 magnification using a virtual slide scanning system (Axio scan7/ZEN slidescan).
Caspase 3/7 activity assay. Caspase 3/7 activity was assessed using the commercially Caspase-Glo® 3/7 assay (Promega, Madison, Wisconsin) following the manufacturer’s instructions.
Briefly, Caspase-Glo® 3/7 Reagent was incubated with the cells and the caspase3/7 activity was determined by measuring luminescence with a luminometer (Berthold). Caspase3/7 activity was expressed as a percentage of the untreated control. […]

CypD, sequence (P30405 30-207): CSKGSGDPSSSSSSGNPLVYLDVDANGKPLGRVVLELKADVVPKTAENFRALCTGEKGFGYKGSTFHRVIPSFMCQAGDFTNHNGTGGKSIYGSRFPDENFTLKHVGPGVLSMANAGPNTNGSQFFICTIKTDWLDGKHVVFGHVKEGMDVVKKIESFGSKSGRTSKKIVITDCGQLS

Row | Compound | inhibition of CypD PPIase activity by diastereoisomers (CypD) | IC50 (CypD) [nM] | mitochondrial CRC vs maximum effect of CsA [1] | mitochondrial CRC vs CsA and ALV [1] | maximal mitochondrial CRC, diastereoisomer vs racemic mixture [1] | mitochondrial CRC vs control [1] | EC50 [1] [nM] | inhibition of mPTP opening (AML-12 cells [2]; 0.5 μM) | prevention of mPTP opening (loss of calcein fluorescence) (AML-12 cells [2]) | inhibition of cell death (AML-12 cells [3]; 0.5 μM) | inhibition of LDH release (AML-12 cells [3]; 0.5 μM) | LDH release (AML-12 cells [3]) | protection against hypoxia/reoxygenation-induced cell apoptosis (caspase 3/7 activity) (AML-12 cells [4])
1 | COc1ccc(Br)cc1[C@H](NC(=O)NCc1ccc2c(c1)CCCN2)C(=O)N1CCC[C@@H]1c1cccc2ccsc12 [Compound C105SR, 1-((S)-2-((R)-2-(benzo[b]thiophen-7-yl)pyrrolidin-1-yl)-1-(5-bromo-2-methoxyphenyl)-2-oxoethyl)-3-((1,2,3,4-tetrahydroquinolin-6-yl)methyl)urea] | inhibited CypD PPIase activity | 5 ± 1 | stronger effect than the maximum effect achieved by CsA | comparable to those of CsA and ALV | 595 ± 38 nmol Ca2+/mg of mitochondrial | greater than control mitochondrial CRC | 50 ± 20 | inhibited | substantially prevented | inhibited | potent activity inhibiting LDH release | reduced LDH release | protected against hypoxia/reoxygenation-induced cell apoptosis
2 | COc1ccc(Br)cc1[C@H](NC(=O)NCc1ccc(N)cc1)C(=O)N1CCC[C@@H]1c1cccc2ccsc12 [Compound C110SR, 1-(4-aminobenzyl)-3-((S)-2-((R)-2-(benzo[b]thiophen-7-yl)pyrrolidin-1-yl)-1-(5-bromo-2-methoxyphenyl)-2-oxoethyl)urea] | inhibited CypD PPIase activity | 8 ± 2 | stronger effect than the maximum effect achieved by CsA | comparable to those of CsA and ALV | 670 ± 52 nmol Ca2+/mg of mitochondrial | greater than control mitochondrial CRC | 140 ± 20 |  | substantially prevented |  | not effective | reduced LDH release | protected against hypoxia/reoxygenation-induced cell apoptosis
